In one assay the target is FGFR1 (Homo sapiens (Human), UniProt P11362). Briefly: FGFR Enzymatic Assay (FGFR1). As to conditions: enzyme 0.02 nM, ATP 210 μM. The assay is classed as biochemical.
The next assay deals with FGFR2 (Homo sapiens (Human), UniProt P21802). Briefly: FGFR Enzymatic Assay (FGFR2).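 Further: FRET read-out of peptide phosphorylation by the purified kinase, with enzyme-free blank and uninhibited enzyme as controls, potency from a variable-slope sigmoidal dose-response fit.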 The assay is classed as biochemical. As to conditions: enzyme 0.01 nM, ATP 100 μM; read-out: FGFR2 IC50.
Chain of FGFR2 (P21802 22-821): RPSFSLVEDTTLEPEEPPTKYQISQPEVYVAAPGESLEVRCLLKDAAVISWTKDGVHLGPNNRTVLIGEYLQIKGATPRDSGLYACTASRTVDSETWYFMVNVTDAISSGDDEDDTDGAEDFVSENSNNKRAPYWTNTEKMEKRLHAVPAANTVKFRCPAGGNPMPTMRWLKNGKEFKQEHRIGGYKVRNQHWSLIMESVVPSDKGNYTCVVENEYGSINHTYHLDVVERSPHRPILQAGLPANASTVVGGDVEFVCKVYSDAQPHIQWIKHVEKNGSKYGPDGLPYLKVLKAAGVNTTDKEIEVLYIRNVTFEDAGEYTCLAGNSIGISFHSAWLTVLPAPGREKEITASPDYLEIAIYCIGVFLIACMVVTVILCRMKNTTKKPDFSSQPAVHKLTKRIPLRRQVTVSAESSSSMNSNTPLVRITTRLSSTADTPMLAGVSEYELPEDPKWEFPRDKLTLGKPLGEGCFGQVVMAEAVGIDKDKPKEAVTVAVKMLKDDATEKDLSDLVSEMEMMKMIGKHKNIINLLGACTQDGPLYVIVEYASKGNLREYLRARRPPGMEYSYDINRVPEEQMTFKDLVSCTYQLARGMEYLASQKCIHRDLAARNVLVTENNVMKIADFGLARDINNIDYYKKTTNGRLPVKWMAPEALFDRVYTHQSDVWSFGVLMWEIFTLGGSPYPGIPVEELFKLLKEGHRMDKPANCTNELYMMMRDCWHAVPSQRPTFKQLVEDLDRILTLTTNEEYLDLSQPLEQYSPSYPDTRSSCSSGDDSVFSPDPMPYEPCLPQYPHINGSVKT
Another assay deals with FGFR3 enzyme (Millipore) (Homo sapiens (Human), UniProt P22607). In words: biochemical.
Chain of FGFR3 enzyme (Millipore) (P22607 23-806): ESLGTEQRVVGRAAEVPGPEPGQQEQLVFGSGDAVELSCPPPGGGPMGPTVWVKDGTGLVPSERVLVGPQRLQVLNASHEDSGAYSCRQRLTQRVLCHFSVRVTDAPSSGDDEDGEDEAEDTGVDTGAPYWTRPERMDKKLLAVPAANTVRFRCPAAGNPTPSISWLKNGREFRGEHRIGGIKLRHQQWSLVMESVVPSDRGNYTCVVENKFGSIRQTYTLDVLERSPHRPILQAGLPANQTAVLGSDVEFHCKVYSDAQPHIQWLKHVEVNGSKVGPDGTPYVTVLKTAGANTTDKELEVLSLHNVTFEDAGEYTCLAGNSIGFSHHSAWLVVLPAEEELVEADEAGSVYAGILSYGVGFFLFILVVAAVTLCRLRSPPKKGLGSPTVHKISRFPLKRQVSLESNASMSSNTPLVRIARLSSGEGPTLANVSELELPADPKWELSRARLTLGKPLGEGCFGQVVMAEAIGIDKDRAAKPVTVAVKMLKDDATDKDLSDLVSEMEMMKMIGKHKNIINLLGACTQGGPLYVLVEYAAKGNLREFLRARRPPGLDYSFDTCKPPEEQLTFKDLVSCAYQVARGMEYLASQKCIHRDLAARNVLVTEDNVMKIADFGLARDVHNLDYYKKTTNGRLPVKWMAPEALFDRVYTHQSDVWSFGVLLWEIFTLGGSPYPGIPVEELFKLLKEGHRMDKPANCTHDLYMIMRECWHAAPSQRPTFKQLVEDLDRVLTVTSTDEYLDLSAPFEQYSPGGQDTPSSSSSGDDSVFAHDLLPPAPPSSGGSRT

Each structure is given as a SMILES string.

The record followed here is patent US9745311B2, “Substituted pyrrolo[2,3-b]pyrazines as FGFR inhibitors” (Incyte Corporation, priority 2012, dated 2017).

Chain of FGFR1 (P11362 22-822): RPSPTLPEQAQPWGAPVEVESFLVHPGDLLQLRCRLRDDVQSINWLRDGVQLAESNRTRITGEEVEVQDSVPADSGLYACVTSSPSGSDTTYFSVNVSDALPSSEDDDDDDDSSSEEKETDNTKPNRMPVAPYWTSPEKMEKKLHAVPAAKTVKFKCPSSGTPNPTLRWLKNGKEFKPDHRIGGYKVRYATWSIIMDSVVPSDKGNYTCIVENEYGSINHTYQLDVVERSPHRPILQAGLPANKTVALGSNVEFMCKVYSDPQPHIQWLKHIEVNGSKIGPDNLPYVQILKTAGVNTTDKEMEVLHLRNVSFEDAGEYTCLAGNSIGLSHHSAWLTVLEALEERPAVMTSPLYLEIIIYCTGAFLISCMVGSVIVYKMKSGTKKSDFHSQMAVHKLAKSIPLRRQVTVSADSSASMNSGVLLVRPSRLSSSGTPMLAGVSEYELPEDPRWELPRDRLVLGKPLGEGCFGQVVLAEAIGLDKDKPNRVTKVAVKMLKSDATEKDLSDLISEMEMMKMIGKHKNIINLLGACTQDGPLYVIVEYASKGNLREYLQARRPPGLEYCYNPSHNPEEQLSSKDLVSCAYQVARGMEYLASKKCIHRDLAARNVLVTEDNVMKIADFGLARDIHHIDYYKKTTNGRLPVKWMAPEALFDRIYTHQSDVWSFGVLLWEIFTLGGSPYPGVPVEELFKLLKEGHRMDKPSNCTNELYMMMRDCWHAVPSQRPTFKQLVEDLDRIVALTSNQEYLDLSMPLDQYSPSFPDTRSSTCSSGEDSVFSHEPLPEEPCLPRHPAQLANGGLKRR
Protocol for FGFR1: (§1) The inhibitor potency of compounds was measured in an enzyme assay that measures peptide phosphorylation using FRET measurements to detect product formation. Inhibitors were serially diluted in DMSO and a volume of 0.5 μL was transferred to the wells of a 384-well plate. For FGFR3, a 10 μL volume of FGFR3 enzyme (Millipore) diluted in assay buffer (50 mM HEPES, 10 mM MgCl2, 1 mM EGTA, 0.01% Tween-20, 5 mM DTT, pH 7.5) was added to the plate and pre-incubated for 5-10 minutes. Appropriate controls (enzyme blank and enzyme with no inhibitor) were included on the plate. […] The plate was incubated at 25° C. for 1 hr. […] The plate was allowed to equilibrate for ˜1 hr before scanning the wells on a PheraStar plate reader.
(§2) GraphPad prism3 was used to analyze the data. The IC50 values were derived by fitting the data to the equation for a sigmoidal dose-response with a variable slope. Y=Bottom+(Top−Bottom)/(1+10^((Log IC50−X)*HillSlope)) where X is the logarithm of concentration and Y is the response.
Protocol for FGFR3 enzyme (Millipore): as §1, §2

With `COc1cc(CCc2cnc3[nH]c(-c4ccc(NC(C)=O)nc4)cc3n2)cc(OC)c1` [Example 67, N-(5-(2-(3,5-Dimethoxyphenethyl)-5H-pyrrolo[2,3-b]pyrazin-6-yl)pyridin-2-yl)acetamide], the IC50 on FGFR1 was under 100 nM; at FGFR2, under 100 nM; against FGFR3 enzyme (Millipore) it was 100 to 500 nM.

As to `COc1cc(CCc2cnc3[nH]c(-c4ccc(N5CCCC5=O)nc4)cc3n2)cc(OC)c1` [Example 68, 1-(5-(2-(3,5-Dimethoxyphenethyl)-5H-pyrrolo[2,3-b]pyrazin-6-yl)pyridin-2-yl)pyrrolidin-2-one], the IC50 was under 100 nM against FGFR1, under 100 nM at FGFR2 and 100 to 500 nM against FGFR3 enzyme (Millipore).

With `COc1cc(CCc2cnc3[nH]c(-c4cncc(N5CCOCC5)c4)cc3n2)cc(OC)c1` [Example 69, 4-(5-(2-(3,5-Dimethoxyphenethyl)-5H-pyrrolo[2,3-b]pyrazin-6-yl)pyridin-3-yl)morpholine], the IC50 against FGFR1 was under 100 nM; at FGFR2, under 100 nM; at FGFR3 enzyme (Millipore), 100 to 500 nM.

As to `COc1cc(CCc2cnc3[nH]c(-c4ccc5[nH]ncc5c4)cc3n2)cc(OC)c1` [Example 70, 2-(3,5-Dimethoxyphenethyl)-6-(1H-indazol-5-yl)-5H-pyrrolo[2,3-b]pyrazine], the IC50 against FGFR1 was under 100 nM; on FGFR2, under 100 nM; on FGFR3 enzyme (Millipore), 100 to 500 nM.

Regarding `COc1cc(CCc2cnc3[nH]c(-c4ccnc(C(=O)N(C)C)c4)cc3n2)cc(OC)c1` [Example 74, 4-(2-(3,5-Dimethoxyphenethyl)-5H-pyrrolo[2,3-b]pyrazin-6-yl)-N,N-dimethylpicolinamide], the IC50 was under 100 nM against FGFR1, under 100 nM at FGFR2 and 100 to 500 nM against FGFR3 enzyme (Millipore).

With `COc1cc(CCc2cnc3[nH]c(-c4ccnc(C(=O)N5CC(O)C5)c4)cc3n2)cc(OC)c1` [Example 75, (4-(2-(3,5-Dimethoxyphenethyl)-5H-pyrrolo[2,3-b]pyrazin-6-yl)pyridin-2-yl)(3-hydroxyazetidin-1-yl)methanone], the IC50 against FGFR1 is under 100 nM; at FGFR2, under 100 nM; against FGFR3 enzyme (Millipore) it was 100 to 500 nM.
